Test [1] addresses Mitogen-activated protein kinase 9 (Homo sapiens, UniProt P45984). The test is described as follows: Selectivity interaction (Ambit KINOMEscan and KiNATiv profiling in Jurkat cells) EUB0000090b MAPK9. It counts as cell-based. The following applies: at 1 µM.
Test [2] concerns the target Tyrosine-protein kinase Lyn (Homo sapiens, UniProt P07948). As to the kind of experiment: Selectivity interaction (KinaseProfiler screening (Millipore)) EUB0000601a LYN. The following applies: at 3 µM.
The target in test [3] is Ribosomal protein S6 kinase alpha-1 (Homo sapiens, UniProt Q15418). The note with it: at 10 µM.
In test [4] the target is T1, Serine/threonine-protein kinase D3 (Homo sapiens) (UniProt O94806).
T1 sequence (whole entry): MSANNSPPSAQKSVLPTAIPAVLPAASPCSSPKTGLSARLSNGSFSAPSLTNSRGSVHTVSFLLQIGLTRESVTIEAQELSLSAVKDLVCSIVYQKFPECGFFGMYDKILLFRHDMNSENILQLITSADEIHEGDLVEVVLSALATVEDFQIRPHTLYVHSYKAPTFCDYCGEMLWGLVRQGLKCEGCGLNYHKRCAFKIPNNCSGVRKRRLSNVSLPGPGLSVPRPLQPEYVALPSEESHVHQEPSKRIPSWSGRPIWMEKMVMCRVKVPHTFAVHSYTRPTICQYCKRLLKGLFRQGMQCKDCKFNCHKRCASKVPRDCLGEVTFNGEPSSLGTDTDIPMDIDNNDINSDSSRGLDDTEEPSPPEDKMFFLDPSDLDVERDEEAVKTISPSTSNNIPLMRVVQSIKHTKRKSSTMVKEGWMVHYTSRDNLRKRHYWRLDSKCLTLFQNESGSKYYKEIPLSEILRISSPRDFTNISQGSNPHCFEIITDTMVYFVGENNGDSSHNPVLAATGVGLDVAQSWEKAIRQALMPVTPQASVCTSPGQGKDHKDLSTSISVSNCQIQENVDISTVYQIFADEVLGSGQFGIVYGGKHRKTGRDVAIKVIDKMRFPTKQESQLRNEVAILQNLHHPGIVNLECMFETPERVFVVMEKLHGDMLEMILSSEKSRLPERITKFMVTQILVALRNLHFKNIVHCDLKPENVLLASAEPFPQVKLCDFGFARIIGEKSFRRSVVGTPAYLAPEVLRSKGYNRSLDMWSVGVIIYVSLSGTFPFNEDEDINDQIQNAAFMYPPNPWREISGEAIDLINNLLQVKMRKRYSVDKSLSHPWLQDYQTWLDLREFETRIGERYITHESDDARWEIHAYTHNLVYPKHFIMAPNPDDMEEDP
As to the kind of experiment: Selectivity interaction (SelectScreen profiling (Invitrogen)) EUB0000607a PRKD3. The following applies: at 2 µM.

In test [5] the target is Tyrosine-protein kinase Fyn (Homo sapiens) (UniProt P06241). As to the kind of experiment: Selectivity interaction (ActivX KiNativ screen (kinase selectivity in THP-1 cell lysates)) EUB0000639a FYN. It counts as subcellular. The note with it: lysate, at 0.04 µM.
Test [6] addresses Serine/threonine-protein kinase 33 (Homo sapiens) (UniProt Q9BYT3). As to the kind of experiment: Selectivity interaction (Kinase panel (Invitrogen)) EUB0000639a STK33. The note with it: at 200 nM.
In test [7] the target is T2, Serine/threonine-protein kinase TBK1 (Homo sapiens) (UniProt Q9UHD2).
T2 sequence (whole entry): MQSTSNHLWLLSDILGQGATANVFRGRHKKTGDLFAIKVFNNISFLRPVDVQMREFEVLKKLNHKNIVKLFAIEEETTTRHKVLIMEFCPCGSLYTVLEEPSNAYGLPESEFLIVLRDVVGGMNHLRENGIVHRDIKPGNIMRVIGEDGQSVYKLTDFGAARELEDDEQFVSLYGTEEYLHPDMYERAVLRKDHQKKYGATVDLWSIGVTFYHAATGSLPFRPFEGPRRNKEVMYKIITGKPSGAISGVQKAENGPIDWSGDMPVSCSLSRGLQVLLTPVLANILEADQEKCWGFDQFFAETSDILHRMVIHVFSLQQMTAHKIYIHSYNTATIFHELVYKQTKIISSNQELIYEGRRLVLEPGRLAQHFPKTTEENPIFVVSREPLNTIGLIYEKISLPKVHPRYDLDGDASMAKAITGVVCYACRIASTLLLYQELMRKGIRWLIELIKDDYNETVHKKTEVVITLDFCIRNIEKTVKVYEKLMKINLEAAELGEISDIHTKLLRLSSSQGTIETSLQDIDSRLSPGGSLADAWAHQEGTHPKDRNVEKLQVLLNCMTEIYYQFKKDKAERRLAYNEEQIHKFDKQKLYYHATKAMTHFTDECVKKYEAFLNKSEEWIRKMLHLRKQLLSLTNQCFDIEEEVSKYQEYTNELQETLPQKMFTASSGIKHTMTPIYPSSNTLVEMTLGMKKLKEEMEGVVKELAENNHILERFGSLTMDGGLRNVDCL
As to the kind of experiment: Selectivity interaction (ActivX KiNativ screen (kinase selectivity in THP-1 cell lysates)) EUB0000639a TBK1. The note with it: lysate, at 0.2 µM. It counts as subcellular.

The target of test [8] is Serine/threonine-protein kinase PLK1 (Homo sapiens, UniProt P53350). The test is described as follows: Selectivity interaction (Kinase panel (literature)) EUB0001199aCl PLK1. The following applies: at 1 µM.
Test [9] deals with 5'-AMP-activated protein kinase catalytic subunit alpha-2 (Homo sapiens) (UniProt P54646). As to the kind of experiment: Selectivity interaction (Kinase panel (KiNativ target engagement assay in Jurkat cells)) EUB0001635a PRKAA2. The following applies: at 1 µM. Format: cell-based.
5'-AMP-activated protein kinase catalytic subunit alpha-2 (Homo sapiens), sequence (P54646 whole entry, looked up): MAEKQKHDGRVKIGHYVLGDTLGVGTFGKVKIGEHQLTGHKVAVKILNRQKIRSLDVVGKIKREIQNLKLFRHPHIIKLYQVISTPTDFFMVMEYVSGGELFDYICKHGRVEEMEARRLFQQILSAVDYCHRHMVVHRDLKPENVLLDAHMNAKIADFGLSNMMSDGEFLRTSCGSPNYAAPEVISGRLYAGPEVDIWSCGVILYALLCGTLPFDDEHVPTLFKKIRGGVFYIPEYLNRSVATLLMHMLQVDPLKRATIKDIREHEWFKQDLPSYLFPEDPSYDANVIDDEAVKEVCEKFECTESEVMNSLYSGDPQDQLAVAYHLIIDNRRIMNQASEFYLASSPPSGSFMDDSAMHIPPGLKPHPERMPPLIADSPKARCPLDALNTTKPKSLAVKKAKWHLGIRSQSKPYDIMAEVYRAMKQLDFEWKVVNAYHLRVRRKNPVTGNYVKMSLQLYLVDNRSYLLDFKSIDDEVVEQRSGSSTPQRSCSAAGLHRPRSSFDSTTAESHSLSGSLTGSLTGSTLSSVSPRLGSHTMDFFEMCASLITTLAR

Tyrosine-protein kinase Fyn (Homo sapiens), sequence (P06241 2-537 limits assumed): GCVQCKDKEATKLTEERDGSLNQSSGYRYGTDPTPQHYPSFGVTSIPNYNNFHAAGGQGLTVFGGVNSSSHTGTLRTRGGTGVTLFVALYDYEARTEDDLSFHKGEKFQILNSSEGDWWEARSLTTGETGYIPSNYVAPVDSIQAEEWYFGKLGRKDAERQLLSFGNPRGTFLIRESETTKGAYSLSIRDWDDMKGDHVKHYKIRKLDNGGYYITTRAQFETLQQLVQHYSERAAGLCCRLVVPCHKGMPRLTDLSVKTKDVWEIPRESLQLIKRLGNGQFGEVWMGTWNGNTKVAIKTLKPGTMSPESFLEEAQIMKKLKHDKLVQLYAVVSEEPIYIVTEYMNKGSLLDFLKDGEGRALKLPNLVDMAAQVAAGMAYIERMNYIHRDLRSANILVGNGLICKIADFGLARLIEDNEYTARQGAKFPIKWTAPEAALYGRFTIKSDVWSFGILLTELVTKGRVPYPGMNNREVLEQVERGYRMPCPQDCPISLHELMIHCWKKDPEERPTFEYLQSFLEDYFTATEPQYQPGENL
Mitogen-activated protein kinase 9, sequence (P45984 whole entry, looked up): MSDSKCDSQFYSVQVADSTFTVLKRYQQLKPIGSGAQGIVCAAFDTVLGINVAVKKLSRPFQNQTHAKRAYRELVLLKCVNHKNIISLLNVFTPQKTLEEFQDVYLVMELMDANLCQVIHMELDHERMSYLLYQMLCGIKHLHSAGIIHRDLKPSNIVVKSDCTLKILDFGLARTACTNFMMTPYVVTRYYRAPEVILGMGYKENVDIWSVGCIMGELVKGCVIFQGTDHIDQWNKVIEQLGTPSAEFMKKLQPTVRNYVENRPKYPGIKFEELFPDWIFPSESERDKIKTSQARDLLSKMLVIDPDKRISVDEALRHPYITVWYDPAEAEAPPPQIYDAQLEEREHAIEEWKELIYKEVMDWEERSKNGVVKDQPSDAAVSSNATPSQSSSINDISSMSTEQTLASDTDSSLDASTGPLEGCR
Tyrosine-protein kinase Lyn, sequence (P07948 2-512 limits assumed): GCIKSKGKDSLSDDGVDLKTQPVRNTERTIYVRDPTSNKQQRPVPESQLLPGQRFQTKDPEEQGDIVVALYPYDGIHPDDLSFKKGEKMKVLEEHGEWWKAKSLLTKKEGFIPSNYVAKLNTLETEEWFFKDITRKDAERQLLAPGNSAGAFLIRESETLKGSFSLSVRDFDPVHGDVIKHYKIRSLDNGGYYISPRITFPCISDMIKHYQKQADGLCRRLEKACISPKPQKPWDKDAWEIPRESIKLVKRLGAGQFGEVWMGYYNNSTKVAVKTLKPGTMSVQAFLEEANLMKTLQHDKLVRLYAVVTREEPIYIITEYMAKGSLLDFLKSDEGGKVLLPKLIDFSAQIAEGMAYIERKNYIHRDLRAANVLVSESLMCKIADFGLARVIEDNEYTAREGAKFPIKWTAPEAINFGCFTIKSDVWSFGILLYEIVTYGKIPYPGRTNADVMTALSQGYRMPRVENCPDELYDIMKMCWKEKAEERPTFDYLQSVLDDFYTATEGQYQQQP
Serine/threonine-protein kinase PLK1, sequence (P53350 whole entry): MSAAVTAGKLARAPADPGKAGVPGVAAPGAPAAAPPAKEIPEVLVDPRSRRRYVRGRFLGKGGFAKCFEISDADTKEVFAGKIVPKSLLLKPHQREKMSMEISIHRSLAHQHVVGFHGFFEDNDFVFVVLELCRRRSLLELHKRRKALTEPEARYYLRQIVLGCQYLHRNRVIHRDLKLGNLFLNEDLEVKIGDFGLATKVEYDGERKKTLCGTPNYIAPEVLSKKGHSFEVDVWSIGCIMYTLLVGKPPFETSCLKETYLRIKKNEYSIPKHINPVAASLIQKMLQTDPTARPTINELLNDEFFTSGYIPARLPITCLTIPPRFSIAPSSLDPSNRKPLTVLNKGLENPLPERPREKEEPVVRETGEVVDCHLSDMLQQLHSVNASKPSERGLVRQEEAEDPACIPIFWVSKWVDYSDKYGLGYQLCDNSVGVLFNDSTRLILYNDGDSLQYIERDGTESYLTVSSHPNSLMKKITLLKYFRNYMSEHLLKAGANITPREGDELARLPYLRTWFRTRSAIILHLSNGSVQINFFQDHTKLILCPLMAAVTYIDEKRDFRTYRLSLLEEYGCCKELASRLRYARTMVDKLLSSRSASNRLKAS
Ribosomal protein S6 kinase alpha-1, sequence (Q15418 whole entry): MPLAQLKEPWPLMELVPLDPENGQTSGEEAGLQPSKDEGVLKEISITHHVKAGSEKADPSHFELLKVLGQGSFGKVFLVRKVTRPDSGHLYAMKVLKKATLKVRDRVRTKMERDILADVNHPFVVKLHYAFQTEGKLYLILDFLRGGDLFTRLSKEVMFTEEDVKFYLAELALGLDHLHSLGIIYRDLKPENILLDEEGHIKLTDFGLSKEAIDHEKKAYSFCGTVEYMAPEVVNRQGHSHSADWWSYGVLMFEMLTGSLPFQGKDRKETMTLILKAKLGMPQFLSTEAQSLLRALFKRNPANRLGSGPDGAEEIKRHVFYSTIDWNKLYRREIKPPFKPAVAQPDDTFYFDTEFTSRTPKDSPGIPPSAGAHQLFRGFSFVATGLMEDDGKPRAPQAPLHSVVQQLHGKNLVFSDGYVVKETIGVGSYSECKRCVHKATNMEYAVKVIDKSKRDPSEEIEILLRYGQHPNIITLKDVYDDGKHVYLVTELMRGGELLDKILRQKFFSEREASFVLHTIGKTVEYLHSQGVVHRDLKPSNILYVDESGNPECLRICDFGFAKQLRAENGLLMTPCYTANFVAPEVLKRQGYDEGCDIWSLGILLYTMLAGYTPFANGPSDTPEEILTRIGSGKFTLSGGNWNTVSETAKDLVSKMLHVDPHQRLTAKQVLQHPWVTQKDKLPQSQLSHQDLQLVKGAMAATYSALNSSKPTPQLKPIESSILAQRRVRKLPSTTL
Serine/threonine-protein kinase 33 (Homo sapiens), sequence (Q9BYT3 whole entry, looked up): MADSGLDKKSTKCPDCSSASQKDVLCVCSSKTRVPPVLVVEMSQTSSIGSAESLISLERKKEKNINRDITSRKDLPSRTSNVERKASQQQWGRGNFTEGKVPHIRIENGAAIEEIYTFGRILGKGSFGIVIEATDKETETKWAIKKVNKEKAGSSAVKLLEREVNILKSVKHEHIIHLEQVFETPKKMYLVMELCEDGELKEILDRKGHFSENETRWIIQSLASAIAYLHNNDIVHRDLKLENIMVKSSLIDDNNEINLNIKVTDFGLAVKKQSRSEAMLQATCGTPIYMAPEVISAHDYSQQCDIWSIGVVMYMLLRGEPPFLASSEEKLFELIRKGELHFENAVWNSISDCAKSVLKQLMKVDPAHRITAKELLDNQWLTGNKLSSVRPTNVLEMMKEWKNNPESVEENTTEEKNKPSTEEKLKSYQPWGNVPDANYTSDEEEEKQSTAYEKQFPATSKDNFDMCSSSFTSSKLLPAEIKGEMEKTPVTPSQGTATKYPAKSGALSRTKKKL

In the case of `CN(C)C/C=C/C(=O)Nc1ccc(C(=O)N2CCCC(Nc3ncc(Cl)c(-c4c[nH]c5ccccc45)n3)C2)cc1` (centres undefined), the % of control in [1] is 0.55%.
Take `CCc1cc(Nc2nccc(-c3c(-c4ccc(OC)c(C(=O)Nc5c(F)cccc5F)c4)nc4ccccn34)n2)c(OC)cc1N1CCC(N2CCN(S(C)(=O)=O)CC2)CC1`: the % of inhibition in test [2] came to 37%.
`CCN(CC)CCCCNc1ncc2cc(-c3cc(OC)cc(OC)c3)c(NC(=O)NC(C)(C)C)nc2n1` gave a % of control in test [3] of 100%.
Take `CNC(=O)Nc1ccc(-c2nc(N3CC4CCC(C3)O4)c3cnn(C4CCC5(CC4)OCCO5)c3n2)cc1`: in [4], the % of inhibition came out at 4%.
With `CC[C@@H]1[C@H](F)C(=O)N[C@@H]1COc1nccc2cc(C(N)=O)c(OC)cc12` [ZIMLOVISERTIB], the % of inhibition is -0.2% in test [5], 6.96% in [6] and -31.6% in test [7].
For `CN1Cc2nccc(-c3cn(C)nc3-c3ccc(F)cc3)c2C1=O`, the % of inhibition in test [8] is -3%.
Compound `C=CC(=O)Nc1ccc(C(=O)Nc2[nH]nc3c2CN(C(=O)N[C@H](CN(C)C)c2ccccc2)C3(C)C)cc1` yielded a % of engagement in test [9] of 53.5%.

Source of the values: ChEMBL document CHEMBL5465560, “Selectivity Literature for EUbOPEN Chemogenomic Library” (2024).
